Measured values from patent US5215986A, “5-hydroxy-2-pyrimidinylmethylene oxaza heterocycles” (Warner-Lambert Company, priority 1992, dated 1993).

Columns and labels:
Cyclooxygenase = experiment: ARBC whole cell cyclooxygenase assay (PGF2α formation in RBL-1 cells); format: cell-based, rat; details: 10 μm, A23187 stimulated, PGF2α by RIA
Procedure: (§1) ARBL/ARBC Whole Cell 5-Lipoxygenase and Cyclooxygenase Assays The rat basophilic leukemia cell line (RBL 1) was obtained from the American Type Culture Collection (Rockville, Md.). Radioimmunoassay (RIA) kits of LTB4 and PGF2α were obtained from Amersham (Arlington Heights, Ill.) and Seragen (Boston, Mass.), respectively. RBL-1 cells are grown in suspension culture in Eagle's minimum essential medium supplemented with 12% fetal bovine serum at 37° C. in an incubator supplied with air 5% carbon dioxide. Cells are harvested by centrifugation. They are washed with cold phosphate buffered saline pH 7.4 (PBS; NaCl, 7.1 g; Na2 HPO4, 1.15 g; KH2 PO4, 0.2 g; and KCl, 0.2 g/l). Cells are finally suspended in PBS containing 1.0 mM calcium at a density of 2×10^6 cells/ml. Cells are incubated with and without test agent (in DMSO) (1% DMSO is without effect on arachidonic acid metabolism) for ten minutes at room temperature. Calcium ionophore A23187 (5 μM) is added and cells are incubated for seven minutes at 37° C. The reaction is stopped by chilling the tubes on ice for ten minutes. Cells are separated by centrifugation and the supernatant is stored at -20°. Aliquots (100 μl) are analyzed for LTB4 and PGF2α using radioimmunoassay kits as provided by the supplier. […]

5-Lipoxygenase = experiment: ARBL whole cell 5-lipoxygenase assay (LTB4 formation in RBL-1 cells); format: cell-based, rat; details: 10 μm concentration, A23187 stimulated, LTB4 by RIA
Procedure: as §1

With CN1OCC/C(=C\c2nc(C(C)(C)C)c(O)c(C(C)(C)C)n2)C1=O [(E)-4-[[4,6-Bis(1,1-dimethylethyl)-5-hydroxy-2-pyrimidinyl]methylene]tetrahydro-2-methyl-2H-1,2-oxazin-3-one] the “inhibition for ARBC” value (Cyclooxygenase) was 88% and the “inhibition for ARBL” value (5-Lipoxygenase) was 84%.
